Patent publication US20200283498A1, “T CELL RECEPTOR FUSIONS AND CONJUGATES AND METHODS OF USE THEREOF” (Altor Bioscience LLC, priority 2008, published 2020)

Legend:
[1] = tested on: human NSCLC A549-A2 tumor cells; assay: Adoptive transfer of preincubated NK cells in A549-A2 experimental metastasis model; type: in vivo, athymic nude mice; conditions: CTX 200 mg/kg ip days 14, 21; NK cells preincubated with the protein iv days 16, 22 (CTX group: no NK cells)
[2] = tested on: immune cells; type: in vivo, human
Description: FIG. 33A is a line graph showing serum IFN-γ levels (determined by ELISA analysis) of subjects following treatment with 0.04 mg/kg ALT-801 (MTD level). FIG. 33B is a line graph showing IFN-γ ELISPOT analysis of PBMCs for subjects treated with 0.04 mg/kg ALT-801 (MTD level). Peripheral blood mononuclear cells (PBMCs) were prepared from samples collected pre-dosing (Cycles 1 & 2) and 2 hours after the drug infusion of dose 3 and 7. Following overnight incubation in medium alone or medium containing ALT-801, p53-positive A375 tumor cells or ALT-801+A375 tumor cells, activated immune effector cells were measured using ELISPOT for IFN-γ production
Based on PK profile, the IL-2 receptors on the surface of immune cells (i.e. NK cells and T-cells) in the patient are anticipated to be fully occupied by the ALT-801 circulating in the patient's serum when a dose of 0.015 mg/kg or higher is administered. […] IFN-γ is produced by activated NK and T-cells and its induction by ALT-801 likely correlates with an increase in effector cell cytolytic activity that plays a role in the antitumor responses. […] Thus the lack of treatment-related TNF-α expression may contribute to the reduced toxicity observed with ALT-801 treatment compared with high-dose IL-2.
The effects of ALT-801 on cell-mediated immune responses were also examined in treated patients. Blood samples were collected from subjects at pre-dosing on the first study drug infusion day and 2 hours after the drug infusion on the third drug infusion day during the first and second treatment cycles. Peripheral blood mononuclear cells (PBMCs) were prepared and incubated overnight in medium alone or medium containing ALT-801, p53-positive A375 tumor cells or ALT-801+A375 tumor cells. Levels of activated immune effector cells were measured using ELISPOT for interferon-gamma (IFN-γ) production. […] These cells were not found in the blood during the treatment cycle (i.e. Dose 3 and Dose 7 samples), consistent with lymphocyte migration to the tumor site. […] Together, these findings indicate that ALT-801 treatment at the MTD level provided favorable pharmacokinetics and immunostimulatory activity necessary for antitumor responses.

[3] = tested on: metastatic malignancies that express HLA-A2/p53 peptide complexes; assay: Phase I/IIa clinical study of ALT-801: tumor assessment (RECIST); type: in vivo, human
Description: FIG. 35 sets forth Table 2 depicting preliminary tumor assessment for evaluable subjects treated with 0.015, 0.04 or 0.08 mg/kg ALT-801. […] For SD (highlighted), change in target lesions compared to baseline is indicated at week 7 or 11 after the first dose.
ALT-801 is currently being evaluated in a multi-course dose-escalation Phase I/IIa clinical study in patients with metastatic malignancies that express HLA-A2/p53 peptide complexes, the antigenic target of ALT-801. The primary endpoints in this dose-escalation study are to evaluate the safety, determine the maximum-tolerated dose (MTD), and characterize the pharmacokinetic profile of ALT-801 administered to patients with progressive metastatic malignancies. Secondary endpoints include evaluation of ALT-801 immunogenicity and assessment of the patient's immune response and anti-tumor response. Each subject enrolled receives up to a total of 8 doses of the study drug in the following schedule: once daily as an intravenous bolus for the first 4 days (cycle 1), followed by a 10-day rest period of no study drug treatment (rest period) and then once daily as an intravenous bolus for an additional 4 days (cycle 2). The trial design includes a dose escalation phase of 3-6 subjects/cohort with starting dose of 0.015 mg/kg (equivalent to approximately 50,000 IL-2 IU/kg) and an expansion phase with 10 additional patients treated at the MTD level. At least 23 patients have been treated with at least one dose of ALT-801 at the 0.015 mg/kg (4 patients), 0.04 mg/kg (13 patients) and 0.08 mg/kg (6 patients).
The effects of ALT-801 on tumors was assessed based on RECIST criteria by comparing baseline (pre-dose) CT scans with those taken in follow-up visits at week 7 and 11.

[4] = tested on: human PBMCs and purified NK cells; assay: In vitro activation of human PBMCs and purified NK cells by ALT-801; type: cell-based; conditions: concentrations observed in patients; overnight incubation

For “ALT-801: recombinant humanized soluble single-chain TCR-cytokine fusion protein: human TCR β constant domain, murine TCR antigen-binding regions, human IL2; p53 (aa 264-272)/HLA-A2.1 specific”, the Median survival [1] was 85.5 days, the “serum IFN-γ induction by dose level” value ([2]; 0.04 mg/kg or 0.08 mg/kg) was “equivalent levels of serum IFN-γ induction that were higher than those observed at the 0.015 mg/kg dose level” and the “serum IFN-γ concentrations” value ([2]; 4-8 hours after dosing, particularly following the fourth dose) was “increase in serum IFN-γ concentrations”. For the same substance, the “immune cells responsive to ALT-801+A375 tumor cells (ELISPOT)” value ([2]; Pre-dose Cycle-2 sample) was “increase in immune cells responsive to ALT-801+A375 tumor cells”, the “IFN-γ-positive cells in blood (ELISPOT)” value ([2]; during the 2-cycle course of treatment) was “little or no increase in IFN-γ-positive cells” and the “patients with stable disease status” value ([3]; 11 weeks after treatment) was “approximately 50%”. For the same substance, the tumor shrinkage ([3]; cohort 3 subjects with stable disease) was “up to 23%”, the “subjects with stable disease, cohort 3” value ([3]; six evaluated subjects) was “four (three with melanoma and one with renal cell carcinoma) of six evaluated subjects of cohort 3 showed stable disease” and the “subjects with stable disease, cohort 2” value ([3]; six subjects) was “three (prostate cancer, head and neck cancer and renal cell carcinoma) have achieved stable disease status”. For the same substance, the “change in target lesion LD compared to baseline” value ([3]; subject 02004 Metastatic Head and Neck, second course 0.04 mg/kg, over 9 month) was −3.3% and the “activation of human PBMCs and purified NK cells” value [4] was “able to fully activate human PBMCs and purified NK cells”.
